Assay results from patent US20250057751A1, “PEPTIDE HAVING ACTIVITY OF IMPROVING STATE OF SKIN, AND USE THEREOF” (CAREGEN CO., LTD., priority 2021, published 2025).

Columns and labels:
HaCaT cells [1] = assay: Antioxidant effect on skin cells induced by ultraviolet rays (reactive oxygen species, flow cytometry); type: cell-based, human; conditions: 15m J/cm2 ultraviolet rays, 50 μM or 100 μM peptide, 24 hours, FIG. 7B
Method: (§1) In this example, the aim was to confirm the effect of the peptide according to an embodiment on the antioxidant effect of skin cells induced by ultraviolet rays, by evaluating the level of reactive oxygen species in skin cells increased by ultraviolet irradiation.
(§2) Specifically, NIH3T3 cells or HaCaT cells were seeded in a 6-well plate at a density of 5×10^5 cells/well and cultured for 24 hours. The cells were then washed once with serum-free DMEM media, the culture medium was replaced with serum-free DMEM media, and 50 μM or 100 μM of the peptide consisting of the amino acid sequence of SEQ ID NO: 1 was dispensed to the culture medium. The culture medium dispensed with the peptide was cultured in a CO2 incubator at 37° C. for 1 hour, transferred to an e-tube, mixed with 100 ul of PBS, and dispensed into a well plate. Afterwards, using a UV irradiator (VILBER LOURMAT, France), 6 J/cm2 ultraviolet rays were irradiated to NIH3T3 cells, and 15m J/cm2 ultraviolet rays were irradiated to HaCaT cells. The PBS in the well plate was then removed, 900 μL of the culture medium in which the peptides were dispensed was added, and the plate was cultured in a CO2 incubator at 37° C. for 24 hours. […] After washing the centrifuged cells with PBS, FL1 fluorescence values were measured through flow cytometry (FACS, BD, USA). […]

NIH3T3 cells [2] = assay: Inhibitory effect on apoptosis of skin cells induced by ultraviolet rays (survival rate, SRB); type: cell-based, mouse; conditions: 6 J/cm2 ultraviolet rays, 50 μM or 100 μM peptide, 72 hours, FIG. 6A
Method: (§3) In this example, the aim was to confirm the effect of the peptide according to an example on the inhibition of apoptosis or cell recovery of skin cells induced by ultraviolet rays, by evaluating the change in survival rate of skin cells whose apoptosis was induced by ultraviolet irradiation.
(§4) Specifically, NIH3T3 cells or HaCaT cells were seeded in a 96-well plate at a density of 1×10^4 cells/well and cultured for 24 hours. The cells were then washed once with serum-free DMEM media, the culture medium was replaced with serum-free DMEM media, and 50 μM or 100 μM of the peptide consisting of the amino acid sequence of SEQ ID NO: 1 was dispensed to the culture medium. The culture medium dispensed with the peptide was cultured in a CO2 incubator at 37° C. for 1 hour, transferred to an e-tube, mixed with 100 ul of PBS, and dispensed into a well plate. Afterwards, using a UV irradiator (VILBER LOURMAT, France), 6 J/cm2 ultraviolet rays were irradiated to NIH3T3 cells, and 15m J/cm2 ultraviolet rays were irradiated to HaCaT cells. The PBS in the well plate was then removed, 900 μL of the culture medium in which the peptides were dispensed was added, and the plate was cultured in a CO2 incubator at 37° C. for 72 hours. […] The dried culture was then dissolved in 20 mM Tris buffer solution and the absorbance at 560 nm was measured using a microplate reader (Molecular Devices, USA). […]

sirtuin-1 (SIRT-1) = assay: Expression of skin barrier factor in HaCaT cells (RT-PCR); type: cell-based, human; conditions: 50 μM or 100 μM peptide, 24 hours, FIG. 4, FIG. 5A
Method: (§5) In this example, the aim was to confirm the effect of the peptides according to an example on skin barrier defense, by evaluating the expression levels of sirtuin-1 (SIRT-1) or aquaporin-3 (AQP3).
(§6) Specifically, HaCaT cells were seeded in a 6-well plate at a density of 3×10^5 cells/well and cultured for 24 hours. The cells were then washed once with serum-free DMEM media, and the culture medium was replaced with serum-free DMEM media. Thereafter, 50 μM or 100 μM of the peptide consisting of the amino acid sequence of SEQ ID NO: 1 was dispensed into the medium, and cultured in a CO2 incubator at 37° C. for 24 hours. The culture was then washed twice with PBS, and RNA was isolated from the culture using easy blue (iNtRON, Korea). Using the RT kit (Enzynomics, Korea), 1 ug of the isolated RNA was reverse transcribed to synthesize the respective cDNA. Polymerase chain reaction was then performed using the cDNAs and primers sirtuin-1and aquaporin-3. Meanwhile, the untreated group was used as the control group, and the group to which EGF was added (EGF) was used as the positive control group, the nucleotide sequences of the primers used in this example are shown in Table 3 below.

aquaporin-3 (AQP3) = assay: as above; type: cell-based, human; conditions: 50 μM or 100 μM peptide, 24 hours, FIG. 4, FIG. 5B
Method: as §5, §6

NIH3T3 cells [3] = assay: Antioxidant effect on skin cells induced by ultraviolet rays (reactive oxygen species, flow cytometry); type: cell-based, mouse; conditions: 6 J/cm2 ultraviolet rays, 50 μM or 100 μM peptide, 24 hours, FIG. 7A
Method: as §1, §2

elastin = assay: Expression of extracellular matrix constituent factor in NIH3T3 cells (RT-PCR); type: cell-based, mouse; conditions: 50 μM or 100 μM peptide, 24 hours, FIG. 2, FIG. 3C
Method: (§7) In this example, the aim was to confirm the effect of the peptide according to an example on improving endogenous skin aging, including improvement of wrinkles and enhancement of elasticity, etc., by evaluating the expression levels of collagen type 1 (Col1a1), fibronectin, or elastin, which are known components of the dermis.
(§8) Specifically, NIH3T3 cells were seeded in a 6-well plate at a density of 3×10^5 cells/well and cultured for 24 hours. The cells were then washed once with serum-free DMEM media, and the culture medium was replaced with serum-free DMEM media. Thereafter, 50 μM or 100 μM of the peptide consisting of the amino acid sequence of SEQ ID NO: 1 was dispensed into the medium, and cultured in a CO2 incubator at 37° C. for 24 hours. The culture was then washed twice with PBS, and RNA was isolated from the culture using easy blue (iNtRON, Korea). Using an RT kit (Enzynomics, Korea), 1 μg of the isolated RNA was reverse transcribed to synthesize the respective cDNA. Polymerase chain reaction (PCR) was then performed using the cDNAs and primers Col1a1, fibronectin, and elastin. Meanwhile, the untreated group was used as the control group, and the group to which TGF-β1 was added (TGF-β1) was used as the positive control group, the nucleotide sequences of the primers used in this example are shown in Table 2 below.

collagen type 1 (Col1a1) = assay: as above; type: cell-based, mouse; conditions: 50 μM or 100 μM peptide, 24 hours, FIG. 2, FIG. 3A
Method: as §7, §8

fibronectin = assay: as above; type: cell-based, mouse; conditions: 50 μM or 100 μM peptide, 24 hours, FIG. 2, FIG. 3B
Method: as §7, §8

HaCaT cells [4] = assay: Inhibitory effect on apoptosis of skin cells induced by ultraviolet rays (survival rate, SRB); type: cell-based, human; conditions: 15m J/cm2 ultraviolet rays, 50 μM or 100 μM peptide, 72 hours, FIG. 6B
Method: as §3, §4

NIH3T3 cells [5] = assay: Proliferation promoting effect on skin cells (SRB staining, absorbance at 560 nm); type: cell-based, mouse; conditions: 50 μM or 100 μM peptide, 72 hours, serum-free DMEM, FIG. 1A
Method: (§9) In this example, the aim was to confirm the effect of a peptide according to an example on proliferation of skin cells, by evaluating changes in survival rate of NIH3T3 cells, which are mouse fibroblasts, or HaCaT cells, which are human keratinocytes.
(§10) Specifically, NIH3T3 cells or HaCaT cells were seeded in a 96-well plate at a density of 5×10^3 cells/well and cultured for 24 hours. The cells were then washed once with serum-free DMEM media, and the culture medium was replaced with serum-free DMEM media. Then, 50 μM or 100 μM of the peptide consisting of the amino acid sequence of SEQ ID NO: 1 was dispensed into the medium, and cultured in a CO2 incubator at 37° C. for 72 hours. The culture was then washed twice with PBS and treated with 4% paraformaldehyde (PFA) solution for 15 minutes to fix the cultured cells. The culture was then washed twice with distilled water, treated with SRB solution for 1 hour to stain the cells, washed with 1% acetic acid solution, and dried. The dried culture was then dissolved in 20 mM Tris buffer solution and the absorbance at 560 nm was measured using a microplate reader (Molecular Devices, USA). In this example, the untreated group was used as the control group, and the group to which insulin-like growth factor was added (IGF) was used as the positive control group.

HaCaT cells [6] = assay: as above; type: cell-based, human; conditions: 50 μM or 100 μM peptide, 72 hours, serum-free DMEM, FIG. 1B
Method: as §9, §10

With “IHGTYKELLDTVTAP (Peptide 1) [SEQ ID NO: 1]” as the sequence, how does the “level of reactive oxygen species in keratinocytes increased by ultraviolet irradiation” value (HaCaT cells [1]) read?
The value was “reduced”.

What about the “cell survival rate of fibroblasts reduced by ultraviolet irradiation” value (NIH3T3 cells [2]) of the same sequence?
The value was “restored”.

And the “expression of SIRT-1” value (sirtuin-1 (SIRT-1))?
The value was “increased”.

And the “expression of AQP3” value (aquaporin-3 (AQP3))?
The value was “increased”.

What about the “level of reactive oxygen species in fibroblasts increased by ultraviolet irradiation” value (NIH3T3 cells [3]) of the same sequence?
Its value is “reduced”.

And the expression of elastin (elastin)?
Its expression of elastin is “increased”.

What about the “expression of Col1a1” value (collagen type 1 (Col1a1)) of the same sequence?
Its value is “increased”.

What about the expression of fibronectin (fibronectin) of the same sequence?
Its expression of fibronectin is “increased”.

And the “cell survival rate of keratinocytes reduced by ultraviolet irradiation” value (HaCaT cells [4])?
The value was “restored”.

And the proliferation of fibroblasts (NIH3T3 cells [5])?
The proliferation of fibroblasts was “promoted”.

And the proliferation of keratinocytes (HaCaT cells [6])?
Its proliferation of keratinocytes is “promoted”.
